Measured values taken from patent publication US10526316B2, “Quinoxaline and pyridopyrazine derivatives as PI3Kβ inhibitors” (Janssen Pharmaceutica NV, priority 2015, dated 2020).
pIC50, pKd: −log10 of the molar value. Where two headings read alike, the source gives them in different places.

Assays:
PI3Kβ = molecular target: T1, PI3Kβ (Homo sapiens, UniProt P42338); test: Enzyme binding assay (KINOMEscan, DiscoveRx); conditions: PIK3Cβ_h, read-out: Kd PIK3Cβ_h
T1 construct: purchased DiscoveRx Corporation, San Diego (contract service, KINOMEscan)
T1 sequence (P42338 whole entry): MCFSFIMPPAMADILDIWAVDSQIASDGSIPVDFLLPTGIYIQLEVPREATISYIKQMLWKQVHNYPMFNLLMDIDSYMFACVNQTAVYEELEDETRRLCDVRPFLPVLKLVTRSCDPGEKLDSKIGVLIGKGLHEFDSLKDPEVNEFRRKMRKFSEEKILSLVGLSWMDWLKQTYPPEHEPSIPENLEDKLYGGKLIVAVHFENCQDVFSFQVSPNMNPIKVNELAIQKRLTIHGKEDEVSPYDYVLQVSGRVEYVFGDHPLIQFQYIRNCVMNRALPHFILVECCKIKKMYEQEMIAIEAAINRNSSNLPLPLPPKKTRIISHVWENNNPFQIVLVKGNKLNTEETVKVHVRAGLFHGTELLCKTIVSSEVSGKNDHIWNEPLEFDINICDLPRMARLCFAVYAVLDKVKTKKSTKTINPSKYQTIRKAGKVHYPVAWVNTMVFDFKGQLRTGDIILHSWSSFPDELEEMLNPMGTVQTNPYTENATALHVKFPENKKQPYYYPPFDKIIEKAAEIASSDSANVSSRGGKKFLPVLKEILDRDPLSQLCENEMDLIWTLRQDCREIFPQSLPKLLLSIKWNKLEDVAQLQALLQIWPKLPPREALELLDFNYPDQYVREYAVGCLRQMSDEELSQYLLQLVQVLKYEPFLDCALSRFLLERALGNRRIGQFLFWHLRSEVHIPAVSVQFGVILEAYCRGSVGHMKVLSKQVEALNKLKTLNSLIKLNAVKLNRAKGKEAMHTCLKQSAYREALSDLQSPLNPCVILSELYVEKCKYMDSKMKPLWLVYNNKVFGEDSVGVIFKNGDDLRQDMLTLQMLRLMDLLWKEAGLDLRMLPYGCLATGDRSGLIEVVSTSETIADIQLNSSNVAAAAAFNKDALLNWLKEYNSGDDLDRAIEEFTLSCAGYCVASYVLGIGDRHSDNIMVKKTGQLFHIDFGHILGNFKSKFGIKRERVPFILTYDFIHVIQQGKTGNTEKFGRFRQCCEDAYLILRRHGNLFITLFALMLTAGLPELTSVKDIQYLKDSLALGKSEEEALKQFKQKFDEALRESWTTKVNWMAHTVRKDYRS
Method in brief: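 Reported Kd (nM) reflects inhibitor binding to the kinase, as measured by KINOMEscan technology.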

PI3Kδ = molecular target: T2, PI3Kδ (Homo sapiens, UniProt O00329); test: Enzyme binding assay (KINOMEscan, DiscoveRx); conditions: PIK3Cδ_h
T2 construct: purchased DiscoveRx Corporation, San Diego (contract service, KINOMEscan)
T2 sequence (O00329 1-1044): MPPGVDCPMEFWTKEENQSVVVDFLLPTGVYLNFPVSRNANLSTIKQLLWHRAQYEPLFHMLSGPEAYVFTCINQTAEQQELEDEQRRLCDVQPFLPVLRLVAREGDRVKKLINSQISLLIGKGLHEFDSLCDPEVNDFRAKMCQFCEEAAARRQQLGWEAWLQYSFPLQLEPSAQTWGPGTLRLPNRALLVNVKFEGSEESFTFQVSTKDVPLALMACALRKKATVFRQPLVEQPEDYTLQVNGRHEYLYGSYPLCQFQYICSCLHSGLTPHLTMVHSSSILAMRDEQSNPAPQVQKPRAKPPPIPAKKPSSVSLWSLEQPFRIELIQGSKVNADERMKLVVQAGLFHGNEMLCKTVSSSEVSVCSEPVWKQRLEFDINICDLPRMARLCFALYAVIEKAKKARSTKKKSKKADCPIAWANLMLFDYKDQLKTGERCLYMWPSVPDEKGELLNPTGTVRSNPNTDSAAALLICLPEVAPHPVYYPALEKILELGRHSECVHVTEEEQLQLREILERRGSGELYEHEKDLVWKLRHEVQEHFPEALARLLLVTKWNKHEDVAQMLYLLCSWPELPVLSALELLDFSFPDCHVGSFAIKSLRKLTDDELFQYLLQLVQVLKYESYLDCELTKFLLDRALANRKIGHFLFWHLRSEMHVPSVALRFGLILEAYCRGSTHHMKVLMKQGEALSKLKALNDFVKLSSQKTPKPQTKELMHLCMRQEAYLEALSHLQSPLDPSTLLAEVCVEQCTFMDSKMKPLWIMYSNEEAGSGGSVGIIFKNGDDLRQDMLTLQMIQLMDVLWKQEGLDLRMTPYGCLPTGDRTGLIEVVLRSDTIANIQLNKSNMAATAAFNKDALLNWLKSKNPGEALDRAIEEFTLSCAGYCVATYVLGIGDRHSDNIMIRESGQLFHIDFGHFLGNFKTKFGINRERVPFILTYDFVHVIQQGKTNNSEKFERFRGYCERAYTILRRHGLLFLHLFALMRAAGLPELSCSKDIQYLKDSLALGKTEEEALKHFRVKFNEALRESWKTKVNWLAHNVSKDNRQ
Method in brief: (§1)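 Kinase binding measured via KINOMEscan, reported as affinity.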

kinase enzymes [1] = molecular target: T3, kinase enzymes (Homo sapiens, UniProt P48736); test: Enzyme binding assay (KINOMEscan, DiscoveRx), further kinases of Table A; conditions: PIK3Cγ_h
T3 construct: purchased DiscoveRx Corporation, San Diego (contract service, KINOMEscan)
T3 sequence (P48736 whole entry): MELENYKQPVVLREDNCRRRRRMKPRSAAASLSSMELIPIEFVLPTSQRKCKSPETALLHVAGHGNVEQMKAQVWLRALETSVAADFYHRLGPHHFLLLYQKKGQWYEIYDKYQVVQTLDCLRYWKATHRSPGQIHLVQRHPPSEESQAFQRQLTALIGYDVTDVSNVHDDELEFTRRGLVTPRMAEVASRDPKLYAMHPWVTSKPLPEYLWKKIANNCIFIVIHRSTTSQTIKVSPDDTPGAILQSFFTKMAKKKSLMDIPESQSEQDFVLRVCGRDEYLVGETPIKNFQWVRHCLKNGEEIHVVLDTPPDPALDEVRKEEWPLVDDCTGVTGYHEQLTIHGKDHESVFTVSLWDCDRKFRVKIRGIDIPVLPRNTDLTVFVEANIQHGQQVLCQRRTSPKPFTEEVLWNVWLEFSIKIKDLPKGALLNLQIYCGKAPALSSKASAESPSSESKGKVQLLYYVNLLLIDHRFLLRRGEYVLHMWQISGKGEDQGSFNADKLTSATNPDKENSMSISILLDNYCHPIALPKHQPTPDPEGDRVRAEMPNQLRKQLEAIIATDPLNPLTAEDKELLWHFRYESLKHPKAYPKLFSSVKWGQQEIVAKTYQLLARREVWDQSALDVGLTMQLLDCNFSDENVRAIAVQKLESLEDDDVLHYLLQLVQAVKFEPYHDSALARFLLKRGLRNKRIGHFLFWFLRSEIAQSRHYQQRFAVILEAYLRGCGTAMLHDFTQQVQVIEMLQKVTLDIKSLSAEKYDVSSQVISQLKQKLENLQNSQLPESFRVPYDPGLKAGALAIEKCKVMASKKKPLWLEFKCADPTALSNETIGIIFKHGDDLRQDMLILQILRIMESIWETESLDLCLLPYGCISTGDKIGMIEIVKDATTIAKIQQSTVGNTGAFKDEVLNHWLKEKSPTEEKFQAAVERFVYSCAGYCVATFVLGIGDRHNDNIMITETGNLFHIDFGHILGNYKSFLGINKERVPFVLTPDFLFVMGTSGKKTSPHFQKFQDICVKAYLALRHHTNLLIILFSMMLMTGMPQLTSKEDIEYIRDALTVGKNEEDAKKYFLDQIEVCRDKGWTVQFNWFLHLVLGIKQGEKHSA
Method in brief: as §1

kinase enzymes [2] = molecular target: T4, kinase enzymes (Homo sapiens, UniProt P42336); test: as above; conditions: PIK3Cα_h
T4 construct: purchased DiscoveRx Corporation, San Diego (contract service, KINOMEscan)
T4 sequence (P42336 whole entry): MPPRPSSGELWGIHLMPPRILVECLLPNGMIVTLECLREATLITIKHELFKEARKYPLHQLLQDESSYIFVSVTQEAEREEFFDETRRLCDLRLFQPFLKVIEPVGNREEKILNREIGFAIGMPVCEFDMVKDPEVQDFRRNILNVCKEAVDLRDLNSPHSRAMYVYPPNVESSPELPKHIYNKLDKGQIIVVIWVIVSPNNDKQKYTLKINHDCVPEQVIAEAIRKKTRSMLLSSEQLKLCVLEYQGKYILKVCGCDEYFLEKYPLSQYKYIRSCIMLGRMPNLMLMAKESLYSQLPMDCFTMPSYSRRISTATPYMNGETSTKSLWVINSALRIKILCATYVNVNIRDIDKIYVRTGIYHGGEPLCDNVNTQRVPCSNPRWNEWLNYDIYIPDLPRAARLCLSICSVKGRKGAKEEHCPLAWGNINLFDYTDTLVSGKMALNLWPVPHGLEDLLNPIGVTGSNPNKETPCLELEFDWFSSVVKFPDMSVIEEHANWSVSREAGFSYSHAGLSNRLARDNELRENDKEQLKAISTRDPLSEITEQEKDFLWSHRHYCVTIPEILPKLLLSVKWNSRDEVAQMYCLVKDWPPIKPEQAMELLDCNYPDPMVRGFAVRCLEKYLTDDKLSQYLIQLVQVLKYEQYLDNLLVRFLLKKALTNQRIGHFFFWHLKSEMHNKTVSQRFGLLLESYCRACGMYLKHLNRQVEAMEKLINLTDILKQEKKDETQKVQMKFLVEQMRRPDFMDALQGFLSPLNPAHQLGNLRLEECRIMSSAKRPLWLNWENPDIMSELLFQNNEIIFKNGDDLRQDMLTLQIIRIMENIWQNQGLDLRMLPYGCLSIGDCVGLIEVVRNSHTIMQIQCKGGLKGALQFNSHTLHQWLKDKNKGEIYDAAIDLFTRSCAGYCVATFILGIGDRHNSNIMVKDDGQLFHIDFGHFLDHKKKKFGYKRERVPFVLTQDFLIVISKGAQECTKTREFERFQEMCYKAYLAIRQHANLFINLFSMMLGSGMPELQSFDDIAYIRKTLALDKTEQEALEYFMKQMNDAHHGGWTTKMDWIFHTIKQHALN
Method in brief: as §1

kinase enzymes [3] = molecular target: T5, kinase enzymes (Homo sapiens, UniProt P42345); test: as above; conditions: MTOR_h
T5 construct: purchased DiscoveRx Corporation, San Diego (contract service, KINOMEscan)
Method in brief: as §1

[4] = tested on: Akt phosphorylated at Ser473 in PC-3 cells; test: Cellular assay: phosphorylation of Akt at Ser473 in PC-3 cells (MSD ELISA); assay type: cell-based; conditions: PC-3 cells, 60 min compound incubation, MSD ELISA, read-out: IC50 pAkt_S473
Protocol: (§2) Cellular activity of PI3KP inhibitors was determined by quantifying the phosphorylation of Akt in PC-3 cells. Akt phosphorylated at Ser473 and Thr308 were measured using an enzyme-linked immunosorbent assay (ELISA; Meso Scale Discovery (MSD), Gaithersburg. Md.) and specific primary antibodies from MSD.
(§3) On day 2, compound or DMSO (0.3%) was added and cells were further incubated for 60 min at 37° C. 5% CO2 in a total volume of 100 μl of medium.
(§4) The phosphoprotein assay was executed according to vendor instructions in the Phospho-Akt (Ser473) Assay Whole Cell Lysate Kit (MSD # K15100D-3) and the Phospho-Akt (Thr308) Assay Whole Cell Lysate Kit (MSD # K151DYD-3) using the lysis, blocking and wash buffer provided.
(§5) Briefly, at the end of the cell treatment period, media were removed by aspiration and adherent cells were lysed in 50 μl ice-cold lysis buffer. MSD plates are supplied pre-coated with capture antibodies for Phospho-Akt (Ser473 and Thr308). After blocking, lysates from tissue culture plates were added and plates were washed. Then, a solution containing the detection antibody (anti-total Akt conjugated with an electrochemiluminescent compound-MSD Sulfo-tag label) was added. The signals were detected using an MSD SECTOR Imager 6000 and are proportional to the phospho-Akt titres.
(§6) Data were processed. […] From these concentration-response curves, the IC50 values were calculated. Five concentrations were used for curve fitting.

[5] = tested on: Akt phosphorylated at Thr308 in PC-3 cells; test: Cellular assay: phosphorylation of Akt at Thr308 in PC-3 cells (MSD ELISA); assay type: cell-based; conditions: PC-3 cells, 60 min compound incubation, MSD ELISA, read-out: IC50 pAkt_Thr308
Protocol: as §2, §3, §4, §5, §6

| SMILES | pKd (PI3Kβ) | pKd (PI3Kδ) | pKd (kinase enzymes [1]) | pKd (kinase enzymes [2]) | pKd (kinase enzymes [3]) | pIC50 [4] | pIC50 [5] | pIC50 ([4]; Homo sapiens, PC-3, 1 h) | pIC50 ([5]; Homo sapiens, PC-3, 1 h) |
| --- | --- | --- | --- | --- | --- | --- | --- | --- | --- |
| CC(Oc1cccc(F)c1)c1cc(CO)cc2ncc(N3CCOCC3)nc12 (single isomer, unassigned) [Compound 88] | 8.30 | 6.22 | 5.33 | 5.67 | 4.85 | 6.75 | 7.05 | – | – |
| CC(Oc1cc(F)cc(F)c1)c1cc(C(=O)N2CCC2)cc2ncc(N3CCO[C@H](CO)C3)nc12 (mixture of isomers) [Compound 81] | 7.52 | 5.58 | 4.53 | 4.72 | < 4.52 | – | – | ~6.31 | 6.66 |
| CC(C)NCCNC(=O)c1cc(C(C)Oc2ccc(F)c(F)c2)c2nc(N3CCOCC3)cnc2c1 (racemic) [Compound 286] | 7.74 | 5.69 | 4.77 | 5.13 | < 4.52 | 6.40 | 6.61 | – | – |
| C[C@@H]1CN(c2cnc3cc(C(=O)N(C)C)cc(C4CCCN4c4cc(F)cc(F)c4)c3n2)CCO1 (stereo partly drawn) [Compound 3] | 9.00 | 7.70 | 6.64 | 7.33 | 4.75 | 8.52 | ~8.52 | – | – |
| CC(O)c1cc(C2CCCN2c2cc(F)cc(F)c2)c2nc(N3CCOCC3)cnc2c1 (single isomer, unassigned) [Compound 15] | 9.00 | 7.37 | 6.43 | 6.63 | < 4.52 | 8.40 | 8.70 | – | – |
| CC(C)N1CCCN(C(=O)c2cc(NCc3cc(F)cc(F)c3)c3nc(N4CCOCC4)cnc3c2)CC1 [Compound 360] | 7.38 | 4.93 | 4.57 | 5.17 | < 4.52 | – | – | < 6.29 | < 6.29 |
| CC(Nc1cc(F)c(F)c(F)c1)c1cc(C(=O)NCCO)cc2ncc(N3CCOCC3)nc12 (single isomer, unassigned) [Compound 214] | 5.91 | < 4.52 | 5.34 | < 4.52 | < 4.52 | < 6.29 | < 6.29 | – | – |
| CC(Nc1cc(F)cc(F)c1)c1cc(CN2C[C@@H](C)O[C@@H](C)C2)cc2ncc(N3CCOCC3)nc12 (single isomer, unassigned) [Compound 208] | 8.10 | 5.85 | < 4.52 | 5.46 | < 4.52 | 6.73 | 7.08 | – | – |
| CN(C)C(=O)c1cc([C@H]2CCCN2c2cc(F)cc(F)c2)c2nc(N3CCOCC3)cnc2c1 [Compound 1] | 9.52 | 7.82 | 6.50 | 7.47 | 4.55 | 8.70 | 8.52 | – | – |
| CC(Oc1cc(F)cc(F)c1)c1cc(C(=O)N(C)C)cc2ncc(N3CCOCC3)nc12 (single isomer, unassigned) [Compound 5] | 8.70 | 6.65 | 5.10 | 5.80 | 4.60 | 7.00 | 7.00 | – | – |
| CC(Nc1cc(F)cc(F)c1)c1cc(CN2CCS(=O)(=O)CC2)cc2ncc(N3CCOCC3)nc12 (single isomer, unassigned) [Compound 156] | 8.70 | 6.44 | < 4.52 | 6.40 | < 4.52 | 7.38 | 7.29 | – | – |
| CC(C)N1CCCN(C(=O)c2cc(N(C)Cc3cc(F)cc(F)c3)c3nc(N4CCOCC4)cnc3c2)CC1 [Compound 373] | 6.80 | 5.28 | < 4.52 | < 4.52 | < 4.52 | – | – | < 6.29 | < 6.29 |
| CC(Nc1cc(F)cc(F)c1)c1cc(C(=O)NS(=O)(=O)C2CC2)cc2ncc(N3CCOCC3)nc12 (stereo not drawn) [Compound 218] | 8.30 | 5.93 | 5.51 | 6.27 | 5.48 | – | – | < 6.29 | < 6.29 |
| CC(Nc1cc(F)cc(F)c1)c1cc(COCCO)cc2ncc(N3CCOCC3)nc12 (single isomer, unassigned) [Compound 177] | 8.70 | 6.77 | 5.16 | 5.86 | 4.62 | 7.22 | 7.38 | – | – |
| Cc1c(F)cccc1CN(C)c1cc(C(=O)N(C)C)cc2ncc(N3CCOCC3)nc12 [Compound 354] | 7.20 | 5.62 | 4.55 | 5.09 | < 4.52 | – | – | < 6.29 | < 6.29 |

Further lines, results first:

| pKd (PI3Kβ) | pKd (PI3Kδ) | pKd (kinase enzymes [1]) | pKd (kinase enzymes [2]) | pKd (kinase enzymes [3]) | pIC50 [4] | pIC50 [5] | pIC50 ([4]; Homo sapiens, PC-3, 1 h) | pIC50 ([5]; Homo sapiens, PC-3, 1 h) | SMILES |
| --- | --- | --- | --- | --- | --- | --- | --- | --- | --- |
| 5.94 | 5.00 | < 4.52 | 4.81 | < 5.00 | – | – | < 6.29 | < 6.29 | CC(C)NCCNC(=O)c1cc(C(C)Nc2ccc(Cl)c(F)c2)c2nc(N3CCOCC3)cnc2c1 (single isomer, unassigned) [Compound 312a] |
| 7.66 | 6.33 | 5.51 | 6.07 | 5.55 | – | – | < 6.29 | < 6.29 | CC(Oc1cccc(F)c1)c1cc(C(=O)O)cc2ncc(N3CCOCC3)nc12 (single isomer, unassigned) [Compound 257b] |
| 8.52 | 6.70 | 5.62 | 5.66 | < 4.52 | – | – | 7.42 | 7.72 | CC(Nc1cc(F)c(F)c(F)c1)c1cc(C(=O)N2CCCN(C(C)C)CC2)cc2ncc(N3CCOCC3)nc12 (single isomer, unassigned) [Compound 388b] |
| 9.70 | 7.48 | 5.91 | 6.33 | 4.73 | 8.30 | 8.70 | – | – | CNCCN(C)C(=O)c1cc(C(C)Nc2cc(F)c(F)c(F)c2)c2nc(N3CCOCC3)cnc2c1 (single isomer, unassigned) [Compound 335a] |
| 10.00 | 7.23 | 5.76 | 5.96 | 4.70 | 8.05 | 8.10 | – | – | CC(Nc1cc(F)c(F)c(F)c1)c1cc(C(=O)NCCN(C)C)cc2ncc(N3CCOCC3)nc12 (single isomer, unassigned) [Compound 309a] |
| 6.14 | 4.64 | < 4.52 | < 4.52 | < 4.52 | < 6.29 | < 6.29 | – | – | CNCCOCCN(C)C(=O)c1cc(C(C)Nc2ccc(F)c(F)c2)c2nc(N3CCOCC3)cnc2c1 (single isomer, unassigned) [Compound 345b] |
